Tested on: not listed separately
Experiment: Cytotoxicity against human Huh7.5 cells infected with HCV genotype 4a assessed as morphological changes after 72 hrs by inverted light microscopy
Format: cell-based, Huh-7
Details: not given

Row | Structure (SMILES) | CC50 at 72 h
1 | C(=N\Nc1ncnc2c1c(-c1ccccc1)c(-c1ccccc1)n2C1CCCCC1)/c1ccccc1 | 148 µM
2 | c1ccc(Nc2ncnc3c2c(-c2ccccc2)c(-c2ccccc2)n3C2CCCCC2)cc1 | 158 µM
3 | Clc1ccc(/C=N/Nc2ncnc3c2c(-c2ccccc2)c(-c2ccccc2)n3C2CCCCC2)cc1 | 158 µM
4 | N#Cc1c(-c2ccccc2)c(-c2ccccc2)n(C2CCCCC2)c1N | 176 µM
5 | Cc1nnc2c3c(-c4ccccc4)c(-c4ccccc4)n(C4CCCCC4)c3ncn12 | 172 µM
6 | COc1ccc(/C=N/Nc2ncnc3c2c(-c2ccccc2)c(-c2ccccc2)n3-c2ccc(Cl)cc2)cc1 | 113 µM
7 | Cc1ccccc1Nc1ncnc2c1c(-c1ccccc1)c(-c1ccccc1)n2C1CCCCC1 | 153 µM
8 | Clc1ccc(-n2c(-c3ccccc3)c(-c3ccccc3)c3c2ncn2cnnc32)cc1 | 190 µM
9 | S=c1[nH]cnc2c1c(-c1ccccc1)c(-c1ccccc1)n2-c1ccc(Cl)cc1 | 121 µM
10 | Cc1cc(C)n(-c2ncnc3c2c(-c2ccccc2)c(-c2ccccc2)n3-c2ccc(Cl)cc2)n1 | 147 µM
11 | O=c1[nH]nc2c3c(-c4ccccc4)c(-c4ccccc4)n(C4CCCCC4)c3ncn12 | 171 µM
12 | Cc1nc2c(c(-c3ccccc3)c(-c3ccccc3)n2C2CCCCC2)c(=O)[nH]1 | 130 µM
13 | Cc1cccc(Nc2ncnc3c2c(-c2ccccc2)c(-c2ccccc2)n3-c2cccc(Cl)c2)c1 | 103 µM
14 | O=c1[nH]nc2c3c(-c4ccccc4)c(-c4ccccc4)n(-c4cccc(Cl)c4)c3ncn12 | 183 µM
15 | S=c1[nH]cnc2c1c(-c1ccccc1)c(-c1ccccc1)n2-c1cccc(Cl)c1 | 145 µM
16 | c1ccc(-c2c(-c3ccccc3)n(C3CCCCC3)c3ncn4cnnc4c23)cc1 | 178 µM
17 | Cc1nnc2c3c(-c4ccccc4)c(-c4ccccc4)n(-c4ccc(Cl)cc4)c3ncn12 | 138 µM
18 | S=c1[nH]nc2c3c(-c4ccccc4)c(-c4ccccc4)n(-c4cccc(Cl)c4)c3ncn12 | 184 µM
19 | COc1ccc(/C=N/Nc2ncnc3c2c(-c2ccccc2)c(-c2ccccc2)n3C2CCCCC2)cc1 | 140 µM
20 | Clc1ccc(-n2c(-c3ccccc3)c(-c3ccccc3)c3c(N/N=C/c4ccccc4)ncnc32)cc1 | 140 µM
21 | Cc1ccccc1Nc1ncnc2c1c(-c1ccccc1)c(-c1ccccc1)n2-c1ccc(Cl)cc1 | 144 µM
22 | S=c1[nH]nc2c3c(-c4ccccc4)c(-c4ccccc4)n(-c4ccc(Cl)cc4)c3ncn12 | 138 µM
23 | O=c1[nH]cnc2c1c(-c1ccccc1)c(-c1ccccc1)n2C1CCCCC1 | 190 µM
24 | O=c1[nH]cnc2c1c(-c1ccccc1)c(-c1ccccc1)n2-c1ccc(Cl)cc1 | 151 µM
25 | NNc1ncnc2c1c(-c1ccccc1)c(-c1ccccc1)n2-c1cccc(Cl)c1 | 146 µM
26 | Clc1ccc(/C=N/Nc2ncnc3c2c(-c2ccccc2)c(-c2ccccc2)n3-c2ccc(Cl)cc2)cc1 | 131 µM
27 | Clc1ncnc2c1c(-c1ccccc1)c(-c1ccccc1)n2C1CCCCC1 | 155 µM
28 | Cc1ccc(Nc2ncnc3c2c(-c2ccccc2)c(-c2ccccc2)n3-c2cccc(Cl)c2)cc1 | 123 µM
29 | Cc1ccc(Nc2ncnc3c2c(-c2ccccc2)c(-c2ccccc2)n3C2CCCCC2)cc1 | 153 µM

Tested on: Hepatitis C virus
Experiment: Antiviral activity against HCV genotype 4a ED-43/SG-feo (VYG) replicons infected in human Huh7.5 cells assessed as inhibition of viral replication after 72 hrs by immunofluorescence assay
Format: functional, organism-based, Hepacivirus hominis
Details: Huh-7, 72 h

Row | Structure (SMILES) | IC50
30 | S=c1[nH]cnc2c1c(-c1ccccc1)c(-c1ccccc1)n2-c1ccc(Cl)cc1 | > 150 µM
31 | Cc1cc(C)n(-c2ncnc3c2c(-c2ccccc2)c(-c2ccccc2)n3-c2ccc(Cl)cc2)n1 | > 150 µM
32 | O=c1[nH]nc2c3c(-c4ccccc4)c(-c4ccccc4)n(C4CCCCC4)c3ncn12 | > 150 µM
33 | Cc1nc2c(c(-c3ccccc3)c(-c3ccccc3)n2C2CCCCC2)c(=O)[nH]1 | > 150 µM
34 | Cc1cccc(Nc2ncnc3c2c(-c2ccccc2)c(-c2ccccc2)n3-c2cccc(Cl)c2)c1 | > 150 µM
35 | O=c1[nH]nc2c3c(-c4ccccc4)c(-c4ccccc4)n(-c4cccc(Cl)c4)c3ncn12 | > 150 µM
36 | S=c1[nH]cnc2c1c(-c1ccccc1)c(-c1ccccc1)n2-c1cccc(Cl)c1 | > 150 µM
37 | c1ccc(-c2c(-c3ccccc3)n(C3CCCCC3)c3ncn4cnnc4c23)cc1 | > 150 µM
38 | Cc1nnc2c3c(-c4ccccc4)c(-c4ccccc4)n(-c4ccc(Cl)cc4)c3ncn12 | > 150 µM
39 | S=c1[nH]nc2c3c(-c4ccccc4)c(-c4ccccc4)n(-c4cccc(Cl)c4)c3ncn12 | > 150 µM
40 | COc1ccc(/C=N/Nc2ncnc3c2c(-c2ccccc2)c(-c2ccccc2)n3C2CCCCC2)cc1 | > 150 µM
41 | Clc1ccc(-n2c(-c3ccccc3)c(-c3ccccc3)c3c(N/N=C/c4ccccc4)ncnc32)cc1 | > 150 µM
42 | S=c1[nH]nc2c3c(-c4ccccc4)c(-c4ccccc4)n(-c4ccc(Cl)cc4)c3ncn12 | > 150 µM
43 | O=c1[nH]cnc2c1c(-c1ccccc1)c(-c1ccccc1)n2C1CCCCC1 | > 150 µM
44 | O=c1[nH]cnc2c1c(-c1ccccc1)c(-c1ccccc1)n2-c1ccc(Cl)cc1 | > 150 µM
45 | NNc1ncnc2c1c(-c1ccccc1)c(-c1ccccc1)n2-c1cccc(Cl)c1 | > 150 µM
46 | Clc1ncnc2c1c(-c1ccccc1)c(-c1ccccc1)n2C1CCCCC1 | > 150 µM
47 | Cc1ccc(Nc2ncnc3c2c(-c2ccccc2)c(-c2ccccc2)n3-c2cccc(Cl)c2)cc1 | > 150 µM
48 | Cc1ccc(Nc2ncnc3c2c(-c2ccccc2)c(-c2ccccc2)n3C2CCCCC2)cc1 | > 150 µM

The remaining lines, values ahead:

Row | IC50 | Structure (SMILES)
49 | > 150 µM | C(=N\Nc1ncnc2c1c(-c1ccccc1)c(-c1ccccc1)n2C1CCCCC1)/c1ccccc1
50 | > 150 µM | c1ccc(Nc2ncnc3c2c(-c2ccccc2)c(-c2ccccc2)n3C2CCCCC2)cc1
51 | > 150 µM | Clc1ccc(/C=N/Nc2ncnc3c2c(-c2ccccc2)c(-c2ccccc2)n3C2CCCCC2)cc1
52 | > 150 µM | N#Cc1c(-c2ccccc2)c(-c2ccccc2)n(C2CCCCC2)c1N
53 | > 150 µM | Cc1nnc2c3c(-c4ccccc4)c(-c4ccccc4)n(C4CCCCC4)c3ncn12
54 | > 150 µM | COc1ccc(/C=N/Nc2ncnc3c2c(-c2ccccc2)c(-c2ccccc2)n3-c2ccc(Cl)cc2)cc1
55 | > 150 µM | Cc1ccccc1Nc1ncnc2c1c(-c1ccccc1)c(-c1ccccc1)n2C1CCCCC1
56 | > 150 µM | Clc1ccc(-n2c(-c3ccccc3)c(-c3ccccc3)c3c2ncn2cnnc32)cc1
57 | 82.1 µM | Cc1ccccc1Nc1ncnc2c1c(-c1ccccc1)c(-c1ccccc1)n2-c1ccc(Cl)cc1
58 | 93.6 µM | Clc1ccc(/C=N/Nc2ncnc3c2c(-c2ccccc2)c(-c2ccccc2)n3-c2ccc(Cl)cc2)cc1

Tested on: Hepatitis C virus
Experiment: Antiviral activity against HCV genotype 4a ED-43/SG-feo (VYG) replicons infected in human Huh7.5 cells assessed as inhibition of viral replication at non-toxic dose after 72 hrs by immunofluorescence assay
Format: functional, Hepacivirus hominis, Huh-7
Details: not given

Row | Structure (SMILES) | inhibition (INH)
59 | Cc1ccccc1Nc1ncnc2c1c(-c1ccccc1)c(-c1ccccc1)n2-c1ccc(Cl)cc1 | 90%
60 | NNc1ncnc2c1c(-c1ccccc1)c(-c1ccccc1)n2-c1cccc(Cl)c1 | 0%
61 | Clc1ccc(/C=N/Nc2ncnc3c2c(-c2ccccc2)c(-c2ccccc2)n3-c2ccc(Cl)cc2)cc1 | 70%

Tested on: not listed separately
Experiment: Cytotoxicity against human Huh7.5 cells infected with HCV genotype 4a assessed as cell viability after 72 hrs by trypan blue dye-based phase contrast microscopy
Details: Huh-7, 72 h

Row | Structure (SMILES) | CC50
62 | C(=N\Nc1ncnc2c1c(-c1ccccc1)c(-c1ccccc1)n2C1CCCCC1)/c1ccccc1 | 148 µM
63 | c1ccc(Nc2ncnc3c2c(-c2ccccc2)c(-c2ccccc2)n3C2CCCCC2)cc1 | 158 µM
64 | Clc1ccc(/C=N/Nc2ncnc3c2c(-c2ccccc2)c(-c2ccccc2)n3C2CCCCC2)cc1 | 158 µM
65 | N#Cc1c(-c2ccccc2)c(-c2ccccc2)n(C2CCCCC2)c1N | 176 µM
66 | Cc1nnc2c3c(-c4ccccc4)c(-c4ccccc4)n(C4CCCCC4)c3ncn12 | 172 µM
67 | COc1ccc(/C=N/Nc2ncnc3c2c(-c2ccccc2)c(-c2ccccc2)n3-c2ccc(Cl)cc2)cc1 | 113 µM
68 | Cc1ccccc1Nc1ncnc2c1c(-c1ccccc1)c(-c1ccccc1)n2C1CCCCC1 | 153 µM
69 | Clc1ccc(-n2c(-c3ccccc3)c(-c3ccccc3)c3c2ncn2cnnc32)cc1 | 190 µM
70 | S=c1[nH]cnc2c1c(-c1ccccc1)c(-c1ccccc1)n2-c1ccc(Cl)cc1 | 121 µM
71 | Cc1cc(C)n(-c2ncnc3c2c(-c2ccccc2)c(-c2ccccc2)n3-c2ccc(Cl)cc2)n1 | 147 µM
72 | O=c1[nH]nc2c3c(-c4ccccc4)c(-c4ccccc4)n(C4CCCCC4)c3ncn12 | 171 µM
73 | Cc1nc2c(c(-c3ccccc3)c(-c3ccccc3)n2C2CCCCC2)c(=O)[nH]1 | 130 µM
74 | Cc1cccc(Nc2ncnc3c2c(-c2ccccc2)c(-c2ccccc2)n3-c2cccc(Cl)c2)c1 | 103 µM
75 | O=c1[nH]nc2c3c(-c4ccccc4)c(-c4ccccc4)n(-c4cccc(Cl)c4)c3ncn12 | 183 µM
76 | S=c1[nH]cnc2c1c(-c1ccccc1)c(-c1ccccc1)n2-c1cccc(Cl)c1 | 145 µM
77 | c1ccc(-c2c(-c3ccccc3)n(C3CCCCC3)c3ncn4cnnc4c23)cc1 | 178 µM
78 | Cc1nnc2c3c(-c4ccccc4)c(-c4ccccc4)n(-c4ccc(Cl)cc4)c3ncn12 | 138 µM
79 | S=c1[nH]nc2c3c(-c4ccccc4)c(-c4ccccc4)n(-c4cccc(Cl)c4)c3ncn12 | 184 µM
80 | COc1ccc(/C=N/Nc2ncnc3c2c(-c2ccccc2)c(-c2ccccc2)n3C2CCCCC2)cc1 | 140 µM
81 | Clc1ccc(-n2c(-c3ccccc3)c(-c3ccccc3)c3c(N/N=C/c4ccccc4)ncnc32)cc1 | 140 µM
82 | Cc1ccccc1Nc1ncnc2c1c(-c1ccccc1)c(-c1ccccc1)n2-c1ccc(Cl)cc1 | 144 µM
83 | S=c1[nH]nc2c3c(-c4ccccc4)c(-c4ccccc4)n(-c4ccc(Cl)cc4)c3ncn12 | 138 µM
84 | O=c1[nH]cnc2c1c(-c1ccccc1)c(-c1ccccc1)n2C1CCCCC1 | 190 µM
85 | O=c1[nH]cnc2c1c(-c1ccccc1)c(-c1ccccc1)n2-c1ccc(Cl)cc1 | 151 µM
86 | NNc1ncnc2c1c(-c1ccccc1)c(-c1ccccc1)n2-c1cccc(Cl)c1 | 146 µM
87 | Clc1ccc(/C=N/Nc2ncnc3c2c(-c2ccccc2)c(-c2ccccc2)n3-c2ccc(Cl)cc2)cc1 | 131 µM
88 | Clc1ncnc2c1c(-c1ccccc1)c(-c1ccccc1)n2C1CCCCC1 | 155 µM
89 | Cc1ccc(Nc2ncnc3c2c(-c2ccccc2)c(-c2ccccc2)n3-c2cccc(Cl)c2)cc1 | 123 µM
90 | Cc1ccc(Nc2ncnc3c2c(-c2ccccc2)c(-c2ccccc2)n3C2CCCCC2)cc1 | 153 µM
